Target: T1, human calcium receptor (Homo sapiens, UniProt P41180)
T1 construct: expressed in transfected cells; host or cells: cell strain derived from rat adrenal, co-transformed with luciferase cDNA
T1 sequence (P41180 20-1078): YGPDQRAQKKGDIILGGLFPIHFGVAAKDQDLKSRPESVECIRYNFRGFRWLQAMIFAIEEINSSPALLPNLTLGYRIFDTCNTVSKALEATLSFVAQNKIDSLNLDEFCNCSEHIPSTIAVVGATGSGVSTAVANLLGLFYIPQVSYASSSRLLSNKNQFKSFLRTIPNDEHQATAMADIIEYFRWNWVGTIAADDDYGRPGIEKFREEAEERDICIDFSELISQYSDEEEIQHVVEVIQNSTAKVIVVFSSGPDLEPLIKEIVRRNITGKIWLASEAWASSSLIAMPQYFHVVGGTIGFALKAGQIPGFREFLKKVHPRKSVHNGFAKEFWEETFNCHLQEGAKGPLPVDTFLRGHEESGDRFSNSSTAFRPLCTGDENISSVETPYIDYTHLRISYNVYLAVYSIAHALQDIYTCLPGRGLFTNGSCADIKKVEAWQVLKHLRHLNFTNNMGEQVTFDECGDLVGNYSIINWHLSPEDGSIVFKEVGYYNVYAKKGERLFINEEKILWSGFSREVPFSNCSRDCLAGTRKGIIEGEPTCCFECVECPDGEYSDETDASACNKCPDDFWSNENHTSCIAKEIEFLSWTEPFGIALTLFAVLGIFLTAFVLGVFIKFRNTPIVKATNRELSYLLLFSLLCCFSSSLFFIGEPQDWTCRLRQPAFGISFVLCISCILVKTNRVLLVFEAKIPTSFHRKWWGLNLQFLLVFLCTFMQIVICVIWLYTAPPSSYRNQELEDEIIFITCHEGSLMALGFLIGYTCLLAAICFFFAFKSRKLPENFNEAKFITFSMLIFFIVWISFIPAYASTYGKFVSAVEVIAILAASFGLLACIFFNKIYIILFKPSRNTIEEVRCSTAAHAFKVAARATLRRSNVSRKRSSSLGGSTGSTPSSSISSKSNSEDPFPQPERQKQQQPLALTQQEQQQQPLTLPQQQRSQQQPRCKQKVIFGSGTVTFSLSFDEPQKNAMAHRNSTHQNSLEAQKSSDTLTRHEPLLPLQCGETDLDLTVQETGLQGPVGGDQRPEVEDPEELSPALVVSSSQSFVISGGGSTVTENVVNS
Assay: Evaluation of antagonistic action on calcium receptor using reporter gene (luciferase)
Format: cell-based
Conditions: transformed rat adrenal derived cells, 5 mM calcium chloride, culture 4 hrs, luciferase activity; read-out: Reporter gene assay (IC50, concentration showing 50% inhibitory rate)
Experimental: Evaluation of Antagonistic Action on Calcium Receptor Using Reporter Gene
Luciferase cDNA and human calcium receptor cDNA were introduced into a cell strain derived from rat adrenal to transform the cells, and the transformed cells were cultured in a medium (80 μl, F12 medium containing 0.5% dialyzed horse serum and 0.25% dialyzed bovine fetal serum). A dimethyl sulfoxide solution containing a test compound at 0.1-10000 μM was diluted 100-fold with the medium and added to the test compound group at 10 μl per well (dimethyl sulfoxide final concentration 0.1%). In the same manner as in test compound group, dimethyl sulfoxide 100-fold diluted with medium was added to a control group and a blank group. Then, 50 mM calcium chloride-containing medium was added to every well except the blank group at 10 μl per well (final concentration 5 mM). A medium containing 50 mM calcium chloride was added to the control group at 10 μl per well, such that the final calcium concentration of the medium became 5 mM. A medium alone was added to the blank group. After culture for 4 hrs, luciferase substrate was added and the luciferase activity was measured with a photoluminometer. The inhibitory rate (%) was calculated from the obtained measured values according to the following formula.
Based on the results, the concentration (IC50) showing 50% inhibitory rate was determined. The results are shown in the aforementioned Tables 1 to 60.

Row | IC50 [µM] | Compound
1 | 0.004 | Cc1ccc(-c2ccccc2[C@@H](C)OC[C@H](O)CNC(C)(C)Cc2ccc3ccccc3c2)cc1C(=O)O [Example 1-85, 4-methyl-2′-[1-[(2R)-3-[[1-(naphthalen-2-yl)-2-methylpropan-2-yl]amino]-2-hydroxypropoxy]ethyl]biphenyl-3-carboxylic acid]
2 | 0.065 | Cc1ccc(CC(C)(C)NC[C@@H](O)CO[C@H](C)c2ccccc2OCc2ccc(C(=O)O)cc2F)cc1F [Example 2-25, 3-fluoro-4-[[2-[1-[(2R)-3-[[1-(3-fluoro-4-methylphenyl)-2-methylpropan-2-yl]amino]-2-hydroxypropoxy]ethyl]phenoxy]methyl]benzoic acid]
3 | 0.021 | Cc1ccc(CC(C)(C)NC[C@@H](O)COC(C)c2ccccc2C=Cc2ccc(C(=O)O)cc2)cc1F (stereo partly drawn) [Example 2-11, 4-[2-[2-[1-[(2R)-3-[[1-(3-fluoro-4-methylphenyl)-2-methylpropan-2-yl]amino]-2-hydroxypropoxy]ethyl]phenyl]vinyl]benzoic acid]
4 | 0.015 | Cc1ccc(CC(C)(C)NC[C@@H](O)CO[C@H](C)c2ccccc2-c2ccc(C(=O)O)c(Cl)c2)cc1F [Example 1-72, 3-chloro-2′-[1-[(2R)-3-[[1-(3-fluoro-4-methylphenyl)-2-methylpropan-2-yl]amino]-2-hydroxypropoxy]ethyl]biphenyl-4-carboxylic acid]
5 | 0.002 | CCCc1cc(-c2ccccc2[C@@H](C)OC[C@H](O)CNC(C)(C)Cc2ccc(C)c(F)c2)ccc1C(=O)O [Example 1-38, 2′-[1-[(2R)-3-[[1-(3-fluoro-4-methylphenyl)-2-methylpropan-2-yl]amino]-2-hydroxypropoxy]ethyl]-3-propylbiphenyl-4-carboxylic acid]
6 | 0.028 | Cc1cc(-c2ccccc2[C@@H](C)OC[C@H](O)CNC(C)(C)Cc2cc(C(F)(F)F)cc(C(F)(F)F)c2)ccc1C(=O)O [Example 1-94, 2′-[1-[(2R)-3-[[1-(3,5-ditrifluoromethylphenyl)-2-methylpropan-2-yl]amino]-2-hydroxypropoxy]ethyl]-3-methylbiphenyl-4-carboxylic acid]
7 | 0.002 | CC(C)Cc1cc(-c2ccccc2[C@@H](C)OC[C@H](O)CNC(C)(C)Cc2ccc3ccccc3c2)ccc1C(=O)O [Example 1-45, 3-isobutyl-2′-[1-[(2R)-3-[[1-(naphthalen-2-yl)-2-methylpropan-2-yl]amino]-2-hydroxypropoxy]ethyl]biphenyl-4-carboxylic acid]
8 | 0.028 | Cc1cc(-c2ccccc2[C@@H](C)OC[C@H](O)CNC(C)(C)Cc2cccc(Cl)c2F)ccc1C(=O)O [Example 1-91, 2′-[1-[(2R)-3-[[1-(3-chloro-2-fluorophenyl)-2-methylpropan-2-yl]amino]-2-hydroxypropoxy]ethyl]-3-methylbiphenyl-4-carboxylic acid]
9 | 0.017 | Cc1cc(C(=O)O)ccc1-c1ccccc1C(OC[C@H](O)CNC(C)(C)Cc1ccc2ccccc2c1)C1CC1 (stereo partly drawn) [Example 1-66, 2′-[(cyclopropyl)[(2R)-3-[[1-(naphthalen-2-yl)-2-methylpropan-2-yl]amino]-2-hydroxypropoxy]methyl]-2-methylbiphenyl-4-carboxylic acid]
10 | 0.003 | Cc1cc(-c2ccccc2[C@@H](C)OC[C@H](O)CNC(C)(C)Cc2ccc3ccccc3c2)cc(C)c1C(=O)O [Example 1-40, 3,5-dimethyl-2′-[1-[(2R)-3-[[1-(naphthalen-2-yl)-2-methylpropan-2-yl]amino]-2-hydroxypropoxy]ethyl]biphenyl-4-carboxylic acid]
11 | 0.002 | Cc1ccc(CC(C)(C)NC[C@@H](O)CO[C@H](C)c2ccccc2Oc2ccc(C(=O)O)cc2C(F)(F)F)cc1F [Example 2-33, 4-[2-[1-[(2R)-3-[[1-(3-fluoro-4-methylphenyl)-2-methylpropan-2-yl]amino]-2-hydroxypropoxy]ethyl]phenoxy]-3-trifluoromethylbenzoic acid]
12 | 0.057 | Cc1ccc(CC(C)(C)NC[C@@H](O)CO[C@H](C)c2ccccc2OCc2ccc(C(=O)O)cc2)cc1F [Example 2-24, 4-[[2-[1-[(2R)-3-[[1-(3-fluoro-4-methylphenyl)-2-methylpropan-2-yl]amino]-2-hydroxypropoxy]ethyl]phenoxy]methyl]benzoic acid]
13 | 0.016 | C[C@@H](OC[C@H](O)CNC(C)(C)Cc1ccc2ccccc2c1)c1ccccc1Cc1cccc(C(=O)O)c1 [Example 2-15, 3-[2-[1-[(2R)-3-[[1-(naphthalen-2-yl)-2-methylpropan-2-yl]amino]-2-hydroxypropoxy]ethyl]benzyl]benzoic acid]
14 | 0.022 | Cc1ccc(CC(C)(C)NC[C@@H](O)CO[C@H](C)c2ccccc2-c2c(C)cc(C(=O)O)cc2C)cc1F [Example 1-76]
15 | 0.027 | CC(OC[C@H](O)CNC(C)(C)Cc1ccc2ccccc2c1)c1ccccc1Sc1cccc(C(=O)O)c1 (stereo partly drawn) [Example 2-10, 3-[2-[1-[(2R)-3-[[1-(naphthalen-2-yl)-2-methylpropan-2-yl]amino]-2-hydroxypropoxy]ethyl]phenylthio]benzoic acid]
16 | 0.015 | CCc1ccc(CC(C)(C)NC[C@@H](O)CO[C@H](C)c2ccccc2-c2ccc(C(=O)O)c(C)c2)cc1F [Example 1-8, 2′-[1-[(2R)-3-[[1-(4-ethyl-3-fluorophenyl)-2-methylpropan-2-yl]amino]-2-hydroxypropoxy]ethyl]-3-methylbiphenyl-4-carboxylic acid]
17 | 0.04 | COc1ccc(CC(C)(C)NC[C@@H](O)CO[C@H](C)c2ccccc2-c2ccc(C(=O)O)c(C)c2)cc1F [Example 1-20, 2′-[1-[(2R)-3-[[1-(3-fluoro-4-methoxyphenyl)-2-methylpropan-2-yl]amino]-2-hydroxypropoxy]ethyl]-3-methylbiphenyl-4-carboxylic acid]
18 | 0.016 | Cc1cc(C(=O)O)cc(-c2ccccc2[C@@H](C)OC[C@H](O)CNC(C)(C)Cc2ccc3ccccc3c2)c1 [Example 1-9, 3-methyl-2′-[1-[(2R)-3-[[1-(naphthalen-2-yl)-2-methylpropan-2-yl]amino]-2-hydroxypropoxy]ethyl]biphenyl-5-carboxylic acid]
19 | 0.009 | Cc1cc(-c2ccccc2[C@@H](C)OC[C@H](O)CNC(C)(C)Cc2ccc(Cl)c(F)c2)ccc1C(=O)O [Example 1-105]
20 | 0.013 | Cc1cc(-c2ccccc2[C@@H](C)OC[C@H](O)CNC(C)(C)Cc2ccc3ccccc3c2)ccc1C(=O)O [Example 1-12, 2′-[1-[(2R)-3-[[1-(naphthalen-2-yl)-2-methylpropan-2-yl]amino]-2-hydroxypropoxy]ethyl]-3-methylbiphenyl-4-carboxylic acid]
21 | 0.003 | Cc1ccc(CC(C)(C)NC[C@@H](O)CO[C@H](C)c2ccccc2-c2ccc(C(=O)O)c(OC(F)(F)F)c2)cc1F [Example 1-103, 2′-[1-[(2R)-3-[[1-(3-fluoro-4-methylphenyl)-2-methylpropan-2-yl]amino]-2-hydroxypropoxy]ethyl]-3-(trifluoromethoxy)biphenyl-4-carboxylic acid]
22 | 0.002 | CCCc1cc(-c2ccccc2[C@@H](C)OC[C@H](O)CNC(C)(C)Cc2ccc3ccccc3c2)ccc1C(=O)O [Example 1-36, 2′-[1-[(2R)-3-[[1-(naphthalen-2-yl)-2-methylpropan-2-yl]amino]-2-hydroxypropoxy]ethyl]-3-propylbiphenyl-4-carboxylic acid]
23 | 0.023 | C[C@@H](OC[C@H](O)CNC(C)(C)Cc1ccc(Cl)cc1F)c1ccccc1-c1ccc(C(=O)O)c(C(C)(C)C)c1 [Example 1-99, 2′-[1-[(2R)-3-[[1-(4-chloro-2-fluorophenyl)-2-methylpropan-2-yl]amino]-2-hydroxypropoxy]ethyl]-3-t-butylbiphenyl-4-carboxylic acid]

Reference: patent US7304174B2, “CaSR antagonist” (Japan Tobacco Inc., priority 2003, dated 2007)
